Converted amounts (≈) assume the structure as drawn.
Columns and labels:
[1] = Bone powder binding, LC/MS detection; conditions: 100 μM compound, Tris-HCl pH 7, 0.15M NaCl, ground rat tibia bone, 10 min
Method: The ability of the example molecules to bind to bone powder was established in two parallel fashions, using either LC/MS or fluorometric detection. For LC/MS detection, a stock solution (5 mM) of the compound to be tested was added to 0.1M Tris-HCl buffer pH 7, 0.15M NaCl to reach a final concentration of 100 μM. Triplicate samples (1 mL) of the compound solutions were intensively shaken for 10 min with or without 25 mg of fresh or 20 mg of vacuum dried ground rat tibia bone. The samples were then centrifuged for 15 min at 10 000 g. The presence of unbound compound was measured by injection of 30 μL of each of the supernatants into an Agilent 1100™ LC/UV system. For fluorometric detection, an individual compound was dissolved in PBS or water (compound 52) and resuspended at a concentration of 1 mg/ml in a slurry of bone meal powder (Now Foods, Bloomingdale, Ill., USA) in PBS at 10 mg/ml. The suspension of drug/prodrug in bone meal powder was incubated at 37° C. for 1 h to allow for binding, and centrifuged at 13 000 rpm for 2 min, before recovering the supernatant. The bone meal powder pellet was then washed three times with 1 ml of PBS. All supernatants were saved and assessed for fluoroquinolone content by fluorescence measurements at excitation/emission wavelengths of 280/465 nm. The amount of fluoroquinolone was determined from standard curves generated for each experiment. Amount of drug/prodrug bound to bone powder was deduced from the difference between the input amount (typically 1 mg) and the amount recovered in the supernatants after binding. In all binding experiments, >99% of input drug was recovered in the supernatant for the parent drugs.

[2] = tested on: S. aureus strains ATCC13709 and RN4220; assay: microbe, parasite or virus in culture; type: cell-based; conditions: Staphylococcus aureus, read-out: minimum inhibitory concentration (MIC)
Method: (§1) Susceptibility of S. aureus strains ATCC13709 and RN4220 to the commercial antibiotics and synthesized compounds was determined by following the guidelines set by the Clinical and Laboratory Standards Institute (formerly the National Committee for Clinical Laboratory Standards) (M26-A). Compounds were diluted two-fold serially in DMSO and transferred to cation-adjusted Mueller Hinton broth (CAMHB; Becton Dickinson). 50 μL of compounds diluted in CAMHB was mixed with 100 μL of bacteria diluted in CAMHB in 96-well microtiter plates. The final number of micro-organisms in the assay was 5×10^5 c.f.u. per mL and the final concentration of DMSO in the assay was 1.25%. Assays were set up in duplicate and incubated at 37° C. for 18 h. The concentration of compound that inhibited visible growth was reported as the minimum inhibitory concentration (MIC).

[3] = tested on: S. aureus strains ATCC13709 and RN4220; assay: Susceptibility testing (MIC) in the presence of serum; type: cell-based; conditions: Staphylococcus aureus
Method: as §1
Susceptibility testing experiments were also carried out in the presence of serum. These experiments were carried out similar to the susceptibility testing with the following modifications. 75 μL of compounds diluted in CAMHB was mixed with 75 μL of bacteria diluted in 100% serum from any given source (commercial pooled mouse serum (MS) and human serum (HS), Equitech-Bio Inc.) or diluted in 8% purified human serum albumin (HSA) (Calbiochem). […]

[4] = Bone powder binding, fluorometric detection; conditions: 1 mg/ml compound, bone meal powder 10 mg/ml in PBS, 37° C., 1 h
Method in brief: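 LC/MS method: 100 μM compound in 0.1 M Tris-HCl pH 7, 0.15 M NaCl shaken 10 min with or without ground rat tibia, centrifuged, unbound compound measured in supernatant. Fluorometric method: 1 mg/ml compound in 10 mg/ml bone meal/PBS, 1 h at 37 °C, pellet washed. Supernatant fluoroquinolone read at 280/465 nm; bound amount taken as input minus recovered.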

[5] = Regeneration of drug from bone powder-bound prodrug; type: in vitro ADME; conditions: 7 days, medium not stated
Method: Amounts of drug “regenerated” from the phosphonated parent prodrug were measured as follows. Washed bone powder-bound prodrugs from the above section were resuspended in 400 μL PBS or in 400 μL 50% (v/v in PBS) human or rat serum. […] Methanol (5× volume relative to supernatant) was added to each supernatant and the mixture was vortexed on a floor model vortex for 15 min to extract freed fluoroquinolone. The mixture was then centrifuged at 10 000 rpm for 15 min to pellet the insoluble material. The supernatant containing the extracted fluoroquinolone was recovered and evaporated to dryness in a speed vac. The dried pellets were resuspended in PBS and the amount of fluoroquinolone was determined by fluorescence measurements as described above. The percentage of drug regenerated was deduced from the difference between amount of bound prodrug and the amount of regenerated drug. The identity of regenerated drug was deduced by MIC determination; MICs of regenerated material matched those of parent drugs but not those of prodrugs.

Hela cells = assay: Cytotoxicity assay (MTS reduction); type: cell-based; conditions: concentrations up to 100 μM, 18 h, MTS reagent; data not shown
Method: Selected compounds were also tested for their ability to inhibit growth of mammalian cells so as to ascertain levels of cytotoxicity to the mammalian host, via an assay measuring the biological reduction of the inner salt of (3-(4,5-dimethylthiazol-2-yl)-5-(3-carboxymethoxyphenyl)-2-(4-sulfophenyl)-2H-tetrazolium (MTS reagent). Assays were performed in 96-well microtiter plates. Briefly, compounds at 100, 50, 25, and 12.5 μM concentrations were incubated with 2×10^4 Hela cells per well in Dulbecco's Modified Eagle Medium (Invitrogen Corporation) containing 1% Bovine Growth Serum (HyClone) for 18 h at 37° C. under 5% CO2.

SMILES	Binding to bone (%) LC/MS [1]	MIC ([2]; ATCC13709, CAMHB, 37° C., 18 h, data not shown)	MIC ([3]; ATCC13709, in serum (kind not stated), read-out: MIC in serum)	Binding to bone (%) Fluorescence [4]	drug released from the bone matter after 7 days of incubation, in words [5]	cytotoxicity (Hela cells)	MIC ([2]; ATCC13709, 18 h)	MIC ([3]; ATCC13709, read-out: MIC in the presence of 50% mouse serum in the medium)
COc1c(N2C[C@@H]3CCCN[C@@H]3C2)c(F)cc2c(=O)c(C(=O)OCCCCC(P(=O)(O)O)P(=O)(O)O)cn(C3CC3)c12 [Compound 25, 5,5-bisphosphonopentyl 7-((4aS,7aS)-octahydropyrrolo[3,4-b]pyridin-6-yl)-1-cyclopropyl-6-fluoro-1,4-dihydro-8-methoxy-4-oxoquinoline-3-carboxylate]	87.6 ± 11.5%	32 µg/mL (≈ 50.7 µM)	32 µg/mL	92.7%	signs of drug release			
CCOP(=O)(OCC)C(CCCCOC(=O)c1cn(C2CC2)c2c(OC)c(N3C[C@@H]4CCCN[C@@H]4C3)c(F)cc2c1=O)P(=O)(OCC)OCC.O=C(O)C(F)(F)F [Compound 26, 5,5-bis(diethylphosphono)pentyl 7-((4aS,7aS)-octahydropyrrolo[3,4-b]pyridin-6-yl)-1-cyclopropyl-6-fluoro-1,4-dihydro-8-methoxy-4-oxoquinoline-3-carboxylate, trifluoroacetate salt]						no signs of any cytotoxicity	32 µg/mL	0.5 µg/mL
COc1c(N2CCNC(C)C2)c(F)cc2c(=O)c(C(=O)OCCCC(P(=O)(O)O)P(=O)(O)O)cn(C3CC3)c12 (stereo not shown) [Compound 18, 4,4-bisphosphonobutyl 7-(3-methylpiperazin-1-yl)-1-cyclopropyl-6-fluoro-1,4-dihydro-8-methoxy-4-oxoquinoline-3-carboxylate]	96.0 ± 2.4%					no signs of any cytotoxicity		

From patent US20080287396A1, “Phosphonated Fluoroquinolones, Antibacterial Analogs Thereof, and Methods for the Prevention and Treatment of Bone and Joint Infections” (TARGANTA THERAPEUTICA INC., priority 2005, published 2008)
